# The supplement of paper PMC10307832
# How the values were obtained:
# Assay in all cases: relative viability (nuclei count vs DMSO), 5 days (fraction); higher = more cells survive
# [1] = compound: CCn1c(-c2nonc2N)nc2cnc(Oc3cccc(NC(=O)c4ccc(OCCN5CCOCC5)cc4)c3)cc21 + C[C@]1(O)C[C@@H](c2nc(-c3ccc4ccc(-c5ccccc5)nc4c3)c3c(N)nccn32)C1 [Linsitinib] (partner 1 µM)
# Summary of the method: (§1)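 Lung cancer cell lines were pin-tool dosed in 1536-well plates on the day after seeding, with either a lone drug or a fixed anchor-drug dose plus five library-drug doses (not always all listed) in √10 steps. Nuclei were counted on 4× images after 5 days. Relative viability is the ratio of treated-well to vehicle-well nuclei counts, with each value a median of duplicate plates.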
# [2] = compound: CCn1c(-c2nonc2N)nc2cnc(Oc3cccc(NC(=O)c4ccc(OCCN5CCOCC5)cc4)c3)cc21 + CS(=O)(=O)N1CCN(Cc2cc3nc(-c4cccc5[nH]ncc45)nc(N4CCOCC4)c3s2)CC1 [Pictilisib] (partner 1 µM)
# Summary of the method: as §1
# Mirin + Pemetrexed = compound: N=C1NC(=O)/C(=C/c2ccc(O)cc2)S1 [Mirin] + Nc1nc2[nH]cc(CCc3ccc(C(=O)N[C@@H](CCC(=O)O)C(=O)O)cc3)c2c(=O)[nH]1 [Pemetrexed] (partner 0.2 µM)
# Summary of the method: as §1
# Mirin + Palbociclib = compound: N=C1NC(=O)/C(=C/c2ccc(O)cc2)S1 [Mirin] + CC(=O)c1c(C)c2cnc(Nc3ccc(N4CCNCC4)cn3)nc2n(C2CCCC2)c1=O [Palbociclib] (partner 0.5 µM)
# Summary of the method: as §1
Cell Line,relative viability ([1]; first compound 0.04 µM),relative viability ([1]; first compound 0.1265 µM),relative viability ([1]; first compound 0.4 µM),relative viability ([1]; first compound 1.265 µM),relative viability ([1]; first compound 4 µM),relative viability ([2]; first compound 0.04 µM),relative viability ([2]; first compound 0.1265 µM),relative viability ([2]; first compound 0.4 µM),relative viability ([2]; first compound 1.265 µM),relative viability ([2]; first compound 4 µM),relative viability (Mirin + Pemetrexed; first compound 0.25 µM),relative viability (Mirin + Pemetrexed; first compound 0.7906 µM),relative viability (Mirin + Pemetrexed; first compound 2.5 µM),relative viability (Mirin + Pemetrexed; first compound 7.906 µM),relative viability (Mirin + Pemetrexed; first compound 25 µM),relative viability (Mirin + Palbociclib; first compound 0.25 µM),relative viability (Mirin + Palbociclib; first compound 0.7906 µM),relative viability (Mirin + Palbociclib; first compound 2.5 µM),relative viability (Mirin + Palbociclib; first compound 7.906 µM),relative viability (Mirin + Palbociclib; first compound 25 µM)
NCI-H838,0.863,0.49,0.439,0.392,0.289,0.397,0.292,0.231,0.286,0.256,0.235,0.259,0.258,0.236,0.188,0.25,0.232,0.232,0.234,0.236
HARA,1.04,0.733,1,0.634,0.698,0.345,0.345,0.157,0.148,0.0855,0.235,–,0.236,0.227,0.293,0.273,0.277,0.265,0.293,0.268
NCI-H23,0.636,0.827,–,0.549,0.477,0.721,0.613,–,0.433,0.343,0.782,–,0.643,0.598,0.541,0.548,–,0.519,0.49,0.524
LCLC-97TM1,0.221,0.204,–,0.206,0.181,0.261,0.363,–,0.351,0.236,0.161,0.128,0.14,0.149,0.127,0.227,0.236,0.192,0.152,0.198
LC-2-ad,0.936,0.899,0.756,0.55,0.352,0.683,0.729,0.372,0.451,0.386,0.266,0.271,0.254,0.288,0.264,0.543,0.456,0.474,0.505,0.483
NCI-H2342,–,–,–,–,–,–,–,–,–,–,0.728,0.801,0.769,–,0.735,0.482,0.537,0.459,–,0.51
SW 900,–,–,–,–,–,–,–,–,–,–,0.505,0.494,0.47,0.494,0.48,0.478,0.485,0.499,0.464,0.503
IA-LM,0.95,0.8,0.658,0.54,0.681,0.751,0.538,0.634,0.733,0.674,–,–,–,–,–,–,–,–,–,–
EBC-1,0.852,1.09,0.78,0.79,0.876,0.355,0.319,0.35,0.31,0.332,–,–,–,–,–,–,–,–,–,–
ABC-1,1.15,0.906,0.687,0.574,0.5,1.34,0.599,0.494,0.442,0.401,–,–,–,–,–,0.548,0.693,0.573,0.728,0.482
NCI-H596,1.05,1.13,1.16,0.931,1.14,0.399,0.416,0.37,0.359,0.389,0.493,0.542,0.437,0.521,0.539,–,–,–,–,–
NCI-H1650,–,–,–,–,–,0.9,0.595,0.551,0.502,0.527,0.339,0.382,0.377,0.324,0.359,0.362,0.346,0.336,0.369,0.263
NCI-H1563,1.1,1.1,1.12,0.884,0.869,0.629,0.678,0.638,0.66,0.569,0.854,0.898,0.98,0.745,0.769,–,–,–,–,–
NCI-H1648,–,–,–,–,–,–,–,–,–,–,0.76,–,0.853,0.678,0.55,0.328,–,0.304,0.265,0.224
NCI-H1299,0.987,0.858,0.777,0.47,0.769,0.956,0.735,0.74,0.618,0.393,–,–,–,–,–,–,–,–,–,–
A549,0.726,0.662,0.733,0.178,0.319,0.801,0.408,0.436,0.139,0.0926,–,–,–,–,–,–,–,–,–,–
NCI-H1703,0.709,0.838,0.436,0.464,0.294,0.242,0.312,0.206,0.215,0.188,–,–,–,–,–,–,–,–,–,–
NCI-H2170,–,–,–,–,–,0.279,0.27,0.229,0.247,0.258,0.249,0.282,0.268,0.263,0.28,0.415,0.379,0.374,0.361,0.436
NCI-H727,0.265,0.379,0.406,0.506,0.268,0.613,0.741,0.604,0.487,0.345,–,–,–,–,–,0.707,0.782,0.594,0.615,0.636
NCI-H522,–,–,–,–,–,–,–,–,–,–,0.799,1.02,0.764,1,0.522,1.02,0.943,1.19,0.875,0.605
Calu-6,0.964,0.94,0.616,0.524,0.536,1.06,0.808,0.797,0.54,0.403,–,–,–,–,–,–,–,–,–,–
ChaGo-K-1,–,–,–,–,–,1.13,0.652,0.507,–,0.425,0.263,0.252,0.255,0.259,0.256,0.915,0.961,0.973,0.919,0.68
